Paper PMC7156724, “Potent BRD4 inhibitor suppresses cancer cell-macrophage interaction” (Nature Communications, 2020)
Several values for one entry are separate records, joined by “and”; a condition that tells them apart may be missing. Equal entries are not always repeated. Where two headings read alike, the source gives them in different places.

Key:
A375 melanoma cells = assay: AlamarBlue assay, A375; type: cell-based, human; conditions: for Cellular activity in melanoma cells (A375), alamarBlue: Fig.1g, replicates; for IC50: read-out: IC50, cellular activity in A375 (alamarBlue)
Procedure: 3. AlamarBlue assay. AlamarBlue was made by resazurin sodium salt (Sigma, Cat
# 199303) dissolved in PBS.
NCI-H211, MDA-MB231 and A375 cells were plated in 96-well plates at approximately 30% confluence and left overnight to adhere. In the following day, […]
of treatment, 10 μl AlamarBlue reagent (0.3 mg/ml) was added to each well, and after 18h, the florescence intensity in each well was measured using a top-reading fluorescent plate reader with excitation at 530 nm and emission at 590 nm. […]

A375 human melanoma = A375 human melanoma xenograft tumor growth; type: in vivo, mouse; conditions: Fig.3e, 5 Days on, 2 Days off / week x3, individual animals
Description: PO, oral administration; QD, once daily; BID, twice daily. b–d Tumor growth curves for A2780 ovarian tumor (n = 5) (b), TMD8 large B cell lymphoma (n = 6) (c), and B16F10 melanoma (n = 5) (d) bearing mice treated with the indicated compounds once daily for 11-21 days. e, f Tumor growth curves for A375 melanoma (n = 6) (e), and patient-derived xenograft (PDX) of melanoma (n = 5) (f) bearing mice treated with the indicated compounds once daily (5 days on, 2 days off) for 21 days. For d–f, NHWD-870 used is NHWD-870-HCl synthesized using Suzuki coupling route. Data are presented as mean ± SEM in (a, b, d, f) and mean + SEM in (c, e). p values were calculated using two-tailed, unpaired t tests. *p < 0.05; **p < 0.01; ***p < 0.001. Source data are provided as a Source Data file.
4–6 weeks old female BALB/c nude mice were used for most experiments, with the exception of 6–8 weeks old female C57BL/6 mice were used for B16F10 experiments, and 6–8 weeks old male BALB/c nude mice and SD rats were used for pharmacokinetic experiments. All animals were purchased from Shanghai SIPPR-Bk Lab Animal Co., Ltd. All animals were housed under a regimen of 12 h light/12 h dark cycles and specific pathogen-free conditions. 5×10^6 NCI-H526, ES-2, MDA-MB231, A2780, A375, B16F10, and TMD-8 cells (0.1 ml) were injected subcutaneously into female nude mice. The melanoma patient-derived xenograft model was derived from a human melanoma sample (BRAF, NARS and NF1 wild type, and p53 mutant) removed from a patient in Xiangya Hospital. Surgically removed tumor fragments were implanted subcutaneously into female NSG mice. When the tumors grew to ~1000 mm^3, they were harvested and cryopreserved or immediately re-implanted for expansion or experiments. Mouse body weight and tumor sizes were measured every 3 days. Once the tumors grew to 150–200 mm^3, mice were treated with the compounds as described in the Figures. 1 × 10^6 A2780 cells (1 ml) were injected into the abdominal cavity of nude mice. Ascitic volume and tumor weight were measured by an electronic balance. All the procedures were evaluated and approved by the Institutional Animal Care and Use Committee of Central South University and Yale University. […]
We apologize for not clearly labeling the experiments using compounds synthesized using Suzuki coupling method. In the revised manuscript, we modified the text to clearly mark the animal models in Fig 3d-f were tested using NHWD-870 synthesized using Suzuki […]
compared the activity of NHWD-870 synthesized using Stille coupling route with the NHWD-870 synthesized from Suzuki coupling route (Reviewer Figure 1). […]
activity and possible toxicity were identical.
Reviewer Figure 1 NHWD-870 synthesized through Stille or Suzuki route has similar properties in vivo. Tumor bearing mice were treated with 2mg/kg of the indicated compounds, orally administrated once daily for 21 days. Shown are tumor growth curves (a) and body weight change (b) for A375 melanoma bearing mice. […]
986158 in terms of potency, but apart from with the A375 melanocyte cell line, the advance seems relatively moderate. With such similar compounds, the pharmacokinetic properties and ability to accumulate at the desired site is often more important. Figure S6d (prev. Fig. 3d) in the previous

## COc1cc2c(cc1-c1c(C)noc1C)ncc1[nH]c(=O)n([C@H](C)c3ccccn3)c12 [I-BET151]
A375 melanoma cells; concentration(nM) 0.21442
  Cellular activity in melanoma cells (A375), alamarBlue: 0.1541 and 0.2687
A375 melanoma cells; concentration(nM) 0.31236
  Cellular activity in melanoma cells (A375), alamarBlue: 1.39 and 1.537
A375 melanoma cells; concentration(nM) 0.4103
  Cellular activity in melanoma cells (A375), alamarBlue: 1.399 and 1.952
A375 melanoma cells; concentration(nM) 0.6032
  Cellular activity in melanoma cells (A375), alamarBlue: 7.8413 and 3
A375 melanoma cells; concentration(nM) 1.2043
  Cellular activity in melanoma cells (A375), alamarBlue: 31.4642 and 32.5943
A375 melanoma cells; concentration(nM) 1.8024
  Cellular activity in melanoma cells (A375), alamarBlue: 46.9054 and 45.198
A375 melanoma cells; concentration(nM) 2.4
  Cellular activity in melanoma cells (A375), alamarBlue: 80.0356 and 78.8893
A375 melanoma cells; concentration(nM) 3
  Cellular activity in melanoma cells (A375), alamarBlue: 99.9805 and 100.846
A375 melanoma cells; nM
  IC50: 55.5 nM

## Cc1nnn(C)c1-c1cnc2c3c4cnn(C)c4ccc3n([C@H](c3ccccc3)C3CCOCC3)c2c1.Cl [NHWD-870-HCl]
A375 human melanoma; 2 mg/kg PO QD, day 0
  Tumor volume: 124.032 mm3 and 120.497 mm3 and 183.857 mm3 and 155.659 mm3 and 140.462 mm3 and 187.897 mm3
A375 human melanoma; 2 mg/kg PO QD, day 4
  Tumor volume: 125.079 mm3 and 148.629 mm3 and 180.193 mm3 and 187.061 mm3 and 149.381 mm3 and 207.594 mm3
A375 human melanoma; 2 mg/kg PO QD, day 7
  Tumor volume: 119.983 mm3 and 238.282 mm3 and 335.392 mm3 and 359 mm3 and 146.599 mm3 and 237.29 mm3
A375 human melanoma; 2 mg/kg PO QD, day 11
  Tumor volume: 204.214 mm3 and 361.187 mm3 and 438.176 mm3 and 511.029 mm3 and 273.013 mm3 and 310.165 mm3
A375 human melanoma; 2 mg/kg PO QD, day 14
  Tumor volume: 396.493 mm3 and 659.962 mm3 and 783.286 mm3 and 668.171 mm3 and 489.424 mm3 and 499.77 mm3
A375 human melanoma; 2 mg/kg PO QD, day 18
  Tumor volume: 580.818 mm3 and 828.001 mm3 and 941.933 mm3 and 817.427 mm3 and 615.591 mm3 and 523.033 mm3
A375 human melanoma; 2 mg/kg PO QD, day 21
  Tumor volume: 932.477 mm3 and 934.695 mm3 and 1116.85 mm3 and 993.943 mm3 and 830.361 mm3 and 759.477 mm3
A375 human melanoma; 3 mg/kg PO QD, day 0
  Tumor volume: 187.407 mm3 and 129.823 mm3 and 123.552 mm3 and 162.978 mm3 and 197.865 mm3 and 111.638 mm3
A375 human melanoma; 3 mg/kg PO QD, day 4
  Tumor volume: 180.115 mm3 and 100.661 mm3 and 101.808 mm3 and 169.071 mm3 and 201.772 mm3 and 81.9823 mm3
A375 human melanoma; 3 mg/kg PO QD, day 7
  Tumor volume: 354.946 mm3 and 108.136 mm3 and 132.2 mm3 and 290.979 mm3 and 435.513 mm3 and 83.7227 mm3
A375 human melanoma; 3 mg/kg PO QD, day 11
  Tumor volume: 333.816 mm3 and 123.623 mm3 and 211.51 mm3 and 368.326 mm3 and 511.795 mm3 and 108.132 mm3
A375 human melanoma; 3 mg/kg PO QD, day 14
  Tumor volume: 869.938 mm3 and 282.077 mm3 and 467.223 mm3 and 627.735 mm3 and 985.207 mm3 and 153.932 mm3
A375 human melanoma; 3 mg/kg PO QD, day 18
  Tumor volume: 947.479 mm3 and 354.935 mm3 and 602.443 mm3 and 703.598 mm3 and 1037.76 mm3 and 172.297 mm3
A375 human melanoma; 3 mg/kg PO QD, day 21
  Tumor volume: 1152.24 mm3 and 633.313 mm3 and 890.897 mm3 and 1097.51 mm3 and 1306.53 mm3 and 328.738 mm3
A375 human melanoma; Group 4, 1 mg/kg PO QD, day 0
  Tumor volume: 129.244 mm3 and 160.038 mm3 and 169.001 mm3
A375 human melanoma; Group 4, 1 mg/kg PO QD, day 4
  Tumor volume: 194.913 mm3 and 185.189 mm3
A375 human melanoma; Group 4, 1 mg/kg PO QD, day 7
  Tumor volume: 287.4 mm3 and 179.028 mm3
A375 human melanoma; Group 4, 1 mg/kg PO QD, day 11
  Tumor volume: 471.867 mm3 and 223.232 mm3
A375 human melanoma; Group 4, 1 mg/kg PO QD, day 14
  Tumor volume: 761.481 mm3 and 416.901 mm3
A375 human melanoma; Group 4, 1 mg/kg PO QD, day 18
  Tumor volume: 1193.81 mm3 and 502.306 mm3
A375 human melanoma; Group 4, 1 mg/kg PO QD, day 21
  Tumor volume: 1260.17 mm3 and 803.56 mm3 and 2033.79 mm3

## CCNC(=O)C[C@@H]1N=C(c2ccc(Cl)cc2)c2cc(OC)ccc2-n2c(C)nnc21 [GSK-525762]
A375 melanoma cells; concentration(nM) 0.21442, listed as GSK-525672
  Cellular activity in melanoma cells (A375), alamarBlue: 0.7 and 0.7152
A375 melanoma cells; concentration(nM) 0.31236, listed as GSK-525672
  Cellular activity in melanoma cells (A375), alamarBlue: 2.411 and 2.845
A375 melanoma cells; concentration(nM) 0.4103, listed as GSK-525672
  Cellular activity in melanoma cells (A375), alamarBlue: 1.577 and 2.366
A375 melanoma cells; concentration(nM) 0.6032, listed as GSK-525672
  Cellular activity in melanoma cells (A375), alamarBlue: 8.146 and 9.5447
A375 melanoma cells; concentration(nM) 1.2043, listed as GSK-525672
  Cellular activity in melanoma cells (A375), alamarBlue: 25.5205 and 30.3178
A375 melanoma cells; concentration(nM) 1.8024, listed as GSK-525672
  Cellular activity in melanoma cells (A375), alamarBlue: 60.9618 and 63.2464
A375 melanoma cells; concentration(nM) 2.4, listed as GSK-525672
  Cellular activity in melanoma cells (A375), alamarBlue: 99.5135 and 98.5975
A375 melanoma cells; concentration(nM) 3, listed as GSK-525672
  Cellular activity in melanoma cells (A375), alamarBlue: 100.155 and 100.899
A375 melanoma cells; Homo sapiens, A-375, nM printed in b8, the picture prints no unit
  IC50: 35.6 nM
